assay: Electrophysiological assays in Xenopus oocytes expressing cloned NMDA receptor (NR1A/2C); format: cell-based; conditions: Rattus norvegicus, Oocyte

IC50 [nM] | SMILES
93 | Nc1c(Cl)c(Cl)cc2nc(O)c(O)nc12
2100 | Oc1nc2cc(C(F)(F)F)cc(Cl)c2nc1O
280 | Oc1nc2cc(Cl)cc(Cl)c2nc1O
210 | Oc1nc2cc(Cl)c(Cl)c(Br)c2nc1O
30 | Oc1nc2cc(Cl)c(Cl)c(Cl)c2nc1O
130 | Oc1nc2cc(Cl)c(Cl)cc2nc1O [2,3-DIHYDROXY-6,7-DICHLOROQUINOXALINE]

The next lines start with the compound.

SMILES | IC50 [nM]
O=c1[nH]c2cc(Cl)c(Cl)cc2n(O)c1=O | 80
Oc1nc2cc(C(F)(F)F)cc(Br)c2nc1O | 2500
O=c1[nH]c2c(Br)cc(C(F)(F)F)cc2n(O)c1=O | 54000
O=c1[nH]c2c(Br)c(Cl)c(Cl)cc2n(O)c1=O | 2700
Nc1c(Cl)c(Cl)cc2c1[nH]c(=O)c(=O)n2O | 1800
O=c1[nH]c2c(Cl)cc(Cl)cc2n(O)c1=O | 19000
Oc1nc2cc(Br)cc(Br)c2nc1O | 1300
O=c1[nH]c2c(Cl)cc(C(F)(F)F)cc2n(O)c1=O | 25000
O=c1[nH]c2c(Cl)c(Cl)c(Cl)cc2n(O)c1=O | 2500
O=c1[nH]c2c(Br)cc(Br)cc2n(O)c1=O | 20000

From ChEMBL document CHEMBL1128978, “1-Hydroxy-1,4-dihydroquinoxaline-2,3-diones: Novel antagonists at NMDA receptor glycine sites” (Bioorg Med Chem Lett, 1996)
